The experiment deals with chronic fingernail biting. As to the kind of experiment: Treatment of a subject with chronic fingernail biting (Example 1). The format is in vivo, human. As to the method: A subject presented with chronic fingernail biting. The subject was treated with 60 mg of tomoxetine hydrochloride, twice daily for 13 consecutive days. […] The patient's chronic fingernail biting behavior resumed upon termination of treatment with tomoxetine hydrochloride.

We go through one molecule from patent US20040034106A1, “Treatment of anxiety disorders” (priority 2003, published 2004).

Counter-ions that a name gives are not always drawn.

In the case of `CNCC[C@@H](Oc1ccccc1C)c1ccccc1` [tomoxetine hydrochloride, (R)-(−)-N-methyl-3-(2-methylphenoxy)-3-phenylpropylamine], where the note is “60 mg twice daily for 13 consecutive days, healthy appearing fingernails except for one finger”, the “chronic fingernail biting at final assessment” value is recorded as “significant improvement”. Further, the “chronic fingernail biting behavior upon termination of treatment” value (after 60 mg twice daily for 13 consecutive days was stopped) is “resumed”.
